Reference: patent US20090123545A1, “Rapid Onset and Short Term Modafinil Compositions and Methods of Use Thereof” (priority 2005, published 2009)
Values joined by “and” are separate entries in the source; they are usually repeats but may differ in a detail not shown here. Equal values may be shown once. “Also recorded” adds a separate entry of the source. Read-outs that look alike come from different tables or passages of the source.

Tests used:
extracellular dopamine = details: in vivo; cited from earlier work
[1] = cited from earlier work
normal human volunteer = experiment: Double blind study of sub-lingual d-modafinil composition in a normal human volunteer; assay type: in vivo
Description: The test subject was given three vials: one vial containing the base formulation (as in Example 1) to test the taste and delivery means, and two coded vials. One of the coded vials contained 100 mg of d-modafinil formulation, and the second coded vial contained placebo (an equivalent amount of formulation).
The subject was instructed to place the contents of the test formulation under the tongue, to allow the formulation to dissolve over two minutes, and to rinse any residual material with some water.

dopamine reuptake pump = dopamine reuptake pump (Homo sapiens, UniProt Q01959); details: in vitro studies; cited from earlier work
normal human volunteers = experiment: Double blind crossover study of sub-lingual d-modafinil in normal human volunteers (VAS, difficulty to fall asleep); assay type: in vivo; design: key to Visual Analog Scale (0 to 3), difficulty to fall asleep: 0: fell asleep as usual; 1: slight, noticeable change; 2: noticeable change; 3: extreme change (kept awake most of night); details: 200 mg sublingual, one hour before bedtime
Description: Two subjects received a set of coded vials containing either 200 mg of d-modafinil formulated according to Example 1 or an equivalent placebo formulation.
The subjects were given the following instructions:
Start testing at approximately the same time every evening, one hour before bedtime.
Randomly select one of the coded vials each day.
Open the vials and place the powder under your tongue.
Allow the powder to dissolve slowly for approximately 1-2 minutes.
After the powder is fully dissolved, you may drink some water.
Record observations in a Visual Analogue Scale (VAS) describing the difficulty to fall asleep.

mice = details: cited from earlier work

Chain of dopamine reuptake pump (Q01959 whole entry): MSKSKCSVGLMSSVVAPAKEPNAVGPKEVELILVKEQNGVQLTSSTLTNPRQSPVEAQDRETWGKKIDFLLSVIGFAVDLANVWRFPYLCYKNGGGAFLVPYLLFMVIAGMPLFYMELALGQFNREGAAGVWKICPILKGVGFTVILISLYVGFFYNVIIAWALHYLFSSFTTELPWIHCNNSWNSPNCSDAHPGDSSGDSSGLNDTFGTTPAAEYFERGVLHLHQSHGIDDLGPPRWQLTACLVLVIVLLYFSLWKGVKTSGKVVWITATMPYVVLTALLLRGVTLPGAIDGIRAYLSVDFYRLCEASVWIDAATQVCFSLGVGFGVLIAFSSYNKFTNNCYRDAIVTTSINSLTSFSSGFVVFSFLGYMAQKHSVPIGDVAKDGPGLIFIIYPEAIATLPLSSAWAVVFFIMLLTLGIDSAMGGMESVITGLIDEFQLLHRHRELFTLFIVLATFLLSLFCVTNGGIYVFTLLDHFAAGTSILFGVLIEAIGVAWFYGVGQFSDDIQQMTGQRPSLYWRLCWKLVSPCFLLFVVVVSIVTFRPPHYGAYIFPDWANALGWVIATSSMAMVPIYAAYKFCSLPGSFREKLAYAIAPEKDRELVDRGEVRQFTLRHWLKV

Row | SMILES | effect on extracellular dopamine (extracellular dopamine) | time to reach maximum plasma concentrations ([1]; after a single oral dose) [h] | half-life (T1/2) in the human body [1] | fraction of modafinil eliminated by the liver ([1]; ingestion of PROVIGIL tablets, humans) [%] | effect on wakefulness (subject's report) (normal human volunteer; 200 mg Provigil at 10 p.m., same subject about one week before, not blinded) | effect on reuptake of dopamine (dopamine reuptake pump) | subject's reported observations on sleep and alertness (normal human volunteers) | Visual Analog Scale (0 to 3), difficulty to fall asleep (normal human volunteers; Subject 1, Subject 2) | amount in the circulation compared with l-modafinil ([1]; after use of racemic modafinil) | effect on wakefulness (subject's blinded report) (normal human volunteer; 100 mg sublingual at 11:15 p.m., one subject) | wakefulness effect compared with 200 mg racemic modafinil (normal human volunteer; 100 mg sublingual, same subject) | pharmacological activity compared with the modafinil racemic compound (mice) | half-life (T1/2) in the human body ([1]; listed as 1-modafinil) [h]
1 | NC(=O)C[S+]([O-])C(c1ccccc1)c1ccccc1 (racemic) [racemic modafinil, 2-[(diphenylmethyl)sulfinyl]acetamide] | increases extracellular dopamine | 2 to 4 | about 15 hours | ≤ 90 | very pronounced effect | inhibit the reuptake of dopamine |  |  |  |  |  |  | 
2 | NC(=O)C[S@+]([O-])C(c1ccccc1)c1ccccc1 [d-modafinil, (d)-(+)-modafinil] |  |  |  |  |  |  | took longer than usual to fall asleep; also recorded: significantly more alert | 1 and 2 | three times less | active | neither test substance kept them awake as strongly or as long as the 200 mg racemic modafinil | same pharmacological activity | 
3 | NC(=O)C[S@@+]([O-])C(c1ccccc1)c1ccccc1 [l-modafinil] |  |  | 10 to 14 h |  |  |  |  |  |  |  |  | same pharmacological activity | 13 to 16
